Source: US20200216416A1, “QUINOLINE COMPOUNDS AS INHIBITORS OF TAM AND MET KINASES” (Array BioPharma Inc., priority 2019, published 2020)

How the values were obtained:
[1] = biological target: T1, His-tagged recombinant human MER cytoplasmic domain (Homo sapiens, UniProt Q12866); assay: MER Enzyme Assay (LanthaScreen Eu Kinase Binding); conditions: averaged IC50; MER 5 nM; 60-minute incubation at 22° C.; TR-FRET
T1 construct: His-tagged recombinant human MER cytoplasmic domain
T1 sequence (Q12866 527-999 limits assumed): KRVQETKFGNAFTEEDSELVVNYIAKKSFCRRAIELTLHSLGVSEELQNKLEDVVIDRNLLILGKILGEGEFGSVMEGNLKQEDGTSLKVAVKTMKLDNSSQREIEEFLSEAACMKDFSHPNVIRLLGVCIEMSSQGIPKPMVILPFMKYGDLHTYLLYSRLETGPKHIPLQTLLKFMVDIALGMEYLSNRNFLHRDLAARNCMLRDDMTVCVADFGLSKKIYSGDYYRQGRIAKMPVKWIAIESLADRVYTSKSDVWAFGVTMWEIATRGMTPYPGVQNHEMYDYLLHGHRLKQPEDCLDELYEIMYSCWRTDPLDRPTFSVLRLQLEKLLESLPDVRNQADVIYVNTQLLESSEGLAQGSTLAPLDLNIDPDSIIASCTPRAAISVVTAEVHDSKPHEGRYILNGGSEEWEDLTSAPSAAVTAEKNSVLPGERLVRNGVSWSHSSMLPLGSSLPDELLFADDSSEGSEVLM
Method: Compounds disclosed herein were screened for their ability to inhibit […] kinase using Invitrogen's LanthaScreen™Eu Kinase Binding technology. His-tagged recombinant human MER cytoplasmic domain (5 nM) was incubated with 20 nM Alexa-Fluor® Tracer 236 (PR9078A), 2 nM biotinylated anti-His (Cat. No. M4408), and 2 nM europium-labeled Streptavidin (Cat. No. PV5899) along with test compound in a buffer consisting of 25 mM HEPES, pH 7.4, 10 mM MgCl 2, 0.01% Triton X-100, and 2% DMSO. Compounds were typically prepared in a threefold serial dilution in DMSO and added to the assay to give the appropriate final concentration. After a 60-minute incubation at 22° C., the reaction was measured using a PerkinElmer EnVision multimode plate reader via TR-FRET dual wavelength detection, and the percent of control (POC) was calculated using a ratiometric emission factor. […] The POC values are fit to a 4 parameter logistic curve and the IC50 value is point where the curve crosses 50 POC.

[2] = biological target: T2, MET (wt) GST-tagged recombinant human MET kinase domain (Homo sapiens, UniProt P08581); assay: c-Met Enzyme Assay, wild type (LanthaScreen Eu Kinase Binding); conditions: averaged IC50; MET (wt) 10 nM; 60-minute incubation at 22° C.; read-out: SigChem WT IC50
T2 construct: GST-tagged recombinant human MET kinase domain; purchased Signal Chem
T2 sequence (P08581 1078-1345 limits assumed): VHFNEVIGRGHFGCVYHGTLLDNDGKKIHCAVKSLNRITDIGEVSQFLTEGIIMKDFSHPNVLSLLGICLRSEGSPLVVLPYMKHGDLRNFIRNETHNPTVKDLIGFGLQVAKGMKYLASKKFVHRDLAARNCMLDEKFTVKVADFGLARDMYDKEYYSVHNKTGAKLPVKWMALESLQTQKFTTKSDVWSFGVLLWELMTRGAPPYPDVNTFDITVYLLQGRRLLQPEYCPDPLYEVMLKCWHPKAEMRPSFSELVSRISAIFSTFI
Method: (§1) The affinity of compound binding to wild type and mutant human MET kinases was measured using Invitrogen's LanthaScreen™ Eu Kinase Binding technology. Briefly, GST-tagged recombinant human MET kinase domain from Signal Chem (see Table 8 below for concentration in assay) was incubated with 50 nM Alexa-Fluor® Tracer 236 (Invitrogen Cat No. PR9078A) and 2 nM Europium-anti-GST (Invitrogen Cat. No. A15116) along with test compound in a buffer consisting of 25 mM HEPES, pH 7.4, 10 mM MgCl2, 0.01% Triton X-100, 1mM DTT, and 2% DMSO. Compounds were typically prepared in a three-fold serial dilution in DMSO and added to the assay to give the appropriate final concentration. After a 60-minute incubation at 22° C., the reaction was measured using a PerkinElmer EnVision multimode plate reader via TR-FRET dual wavelength detection, and the percent of control (POC) calculated using a ratiometric emission factor. […] The POC values were fit to a 4 parameter logistic curve and the IC50 value is point where the curve crosses 50 POC.

[3] = biological target: T3, human MET kinase del Ex14 (Homo sapiens, UniProt P08581, DEL963-1009); assay: c-Met Enzyme Assay, del Ex14 mutant; assay type: binding; conditions: averaged IC50; del Ex14 5 nM; 60-minute incubation at 22° C.; read-out: Del14 IC50
T3 construct: GST-tagged recombinant human MET kinase domain; purchased Signal Chem
T3 sequence (P08581 with tags, fused parts or gaps DEL963-1009 limits assumed): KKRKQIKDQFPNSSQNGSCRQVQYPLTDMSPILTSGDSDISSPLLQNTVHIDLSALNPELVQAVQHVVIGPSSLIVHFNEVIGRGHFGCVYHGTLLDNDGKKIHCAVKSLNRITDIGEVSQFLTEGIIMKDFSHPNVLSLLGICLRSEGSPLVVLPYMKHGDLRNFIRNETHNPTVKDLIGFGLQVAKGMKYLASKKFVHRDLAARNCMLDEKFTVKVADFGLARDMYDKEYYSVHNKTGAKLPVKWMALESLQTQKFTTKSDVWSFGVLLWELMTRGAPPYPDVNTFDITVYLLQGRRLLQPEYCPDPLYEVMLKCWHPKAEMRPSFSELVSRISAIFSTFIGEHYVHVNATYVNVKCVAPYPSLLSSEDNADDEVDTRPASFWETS
Method: as §1

human MET kinase D1228H = biological target: T4, human MET kinase D1228H (Homo sapiens, UniProt P08581, D1228H); assay: c-Met Enzyme Assay, D1228H mutant; assay type: binding; conditions: averaged IC50; D1228H 2 nM; 60-minute incubation at 22° C.; read-out: D1228 H IC50
T4 construct: GST-tagged recombinant human MET kinase domain; purchased Signal Chem
T4 sequence (P08581 1078-1345 D1228H): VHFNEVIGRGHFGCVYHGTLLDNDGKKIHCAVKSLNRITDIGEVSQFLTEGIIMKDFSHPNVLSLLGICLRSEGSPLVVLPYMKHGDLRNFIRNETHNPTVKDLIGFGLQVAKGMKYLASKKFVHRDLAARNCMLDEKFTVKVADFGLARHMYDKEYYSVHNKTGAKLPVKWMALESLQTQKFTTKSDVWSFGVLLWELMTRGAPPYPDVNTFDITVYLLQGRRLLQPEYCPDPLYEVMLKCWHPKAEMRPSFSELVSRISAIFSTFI
Method: as §1

human MET kinase D1228N = biological target: T5, human MET kinase D1228N (Homo sapiens, UniProt P08581, D1228N); assay: c-Met Enzyme Assay, D1228N mutant; assay type: binding; conditions: averaged IC50; D1228N 2 nM; 60-minute incubation at 22° C.; read-out: D1228 N IC50
T5 construct: GST-tagged recombinant human MET kinase domain; purchased Signal Chem
T5 sequence (P08581 1078-1345 D1228N): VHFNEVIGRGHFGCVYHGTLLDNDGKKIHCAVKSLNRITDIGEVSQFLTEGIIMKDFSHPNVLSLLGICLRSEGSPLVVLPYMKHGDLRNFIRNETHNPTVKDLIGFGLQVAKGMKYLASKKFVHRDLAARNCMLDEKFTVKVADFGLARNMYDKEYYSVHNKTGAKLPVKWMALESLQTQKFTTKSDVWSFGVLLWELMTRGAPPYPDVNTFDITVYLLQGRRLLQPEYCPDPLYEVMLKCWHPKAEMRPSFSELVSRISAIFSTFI
Method: as §1

human MET kinase F1200I = biological target: T6, human MET kinase F1200I (Homo sapiens, UniProt P08581, F1200I); assay: c-Met Enzyme Assay, F1200I mutant; assay type: binding; conditions: averaged IC50; F1200I 2 nM; 60-minute incubation at 22° C.
T6 construct: GST-tagged recombinant human MET kinase domain; purchased Signal Chem
T6 sequence (P08581 1078-1345 F1200I limits assumed): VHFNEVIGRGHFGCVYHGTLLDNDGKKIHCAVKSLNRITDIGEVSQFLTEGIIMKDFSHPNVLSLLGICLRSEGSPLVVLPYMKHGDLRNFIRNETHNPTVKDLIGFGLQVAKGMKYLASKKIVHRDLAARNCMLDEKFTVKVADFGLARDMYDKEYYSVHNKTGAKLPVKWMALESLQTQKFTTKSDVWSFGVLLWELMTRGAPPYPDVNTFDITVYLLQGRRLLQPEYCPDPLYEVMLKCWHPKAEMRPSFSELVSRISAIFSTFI
Method: as §1

human MET kinase L1195V = biological target: T7, human MET kinase L1195V (Homo sapiens, UniProt P08581, L1195V); assay: c-Met Enzyme Assay, L1195V mutant; assay type: binding; conditions: averaged IC50; L1195V 10 nM; 60-minute incubation at 22° C.
T7 construct: GST-tagged recombinant human MET kinase domain; purchased Signal Chem
T7 sequence (P08581 1078-1345 L1195V limits assumed): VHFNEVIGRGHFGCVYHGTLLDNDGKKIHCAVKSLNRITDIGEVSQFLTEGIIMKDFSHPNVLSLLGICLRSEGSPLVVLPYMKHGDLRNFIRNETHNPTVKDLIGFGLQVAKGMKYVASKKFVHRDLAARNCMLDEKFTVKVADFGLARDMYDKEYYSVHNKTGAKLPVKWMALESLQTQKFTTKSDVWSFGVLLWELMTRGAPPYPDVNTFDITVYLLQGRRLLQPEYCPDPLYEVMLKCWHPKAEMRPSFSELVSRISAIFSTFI
Method: as §1

human MET kinase Y1230C = biological target: T8, human MET kinase Y1230C (Homo sapiens, UniProt P08581, Y1230C); assay: c-Met Enzyme Assay, Y1230C mutant; assay type: binding; conditions: averaged IC50; Y1230C 2 nM; 60-minute incubation at 22° C.; read-out: Y1230 C IC50
T8 construct: GST-tagged recombinant human MET kinase domain; purchased Signal Chem
T8 sequence (P08581 1078-1345 Y1230C): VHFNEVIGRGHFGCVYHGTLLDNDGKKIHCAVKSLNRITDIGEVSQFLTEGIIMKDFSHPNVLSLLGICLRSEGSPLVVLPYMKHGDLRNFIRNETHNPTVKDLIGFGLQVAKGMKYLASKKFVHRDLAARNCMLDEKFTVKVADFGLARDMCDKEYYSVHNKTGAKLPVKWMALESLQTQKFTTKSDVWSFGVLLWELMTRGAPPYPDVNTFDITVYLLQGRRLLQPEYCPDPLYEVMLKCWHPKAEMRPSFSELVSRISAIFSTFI
Method: as §1

human MET kinase Y1230H = biological target: T9, human MET kinase Y1230H (Homo sapiens, UniProt P08581, Y1230H); assay: c-Met Enzyme Assay, Y1230H mutant; assay type: binding; conditions: averaged IC50; Y1230H 5 nM; 60-minute incubation at 22° C.; read-out: Y1230 H IC50
T9 construct: GST-tagged recombinant human MET kinase domain; purchased Signal Chem
T9 sequence (P08581 1078-1345 Y1230H): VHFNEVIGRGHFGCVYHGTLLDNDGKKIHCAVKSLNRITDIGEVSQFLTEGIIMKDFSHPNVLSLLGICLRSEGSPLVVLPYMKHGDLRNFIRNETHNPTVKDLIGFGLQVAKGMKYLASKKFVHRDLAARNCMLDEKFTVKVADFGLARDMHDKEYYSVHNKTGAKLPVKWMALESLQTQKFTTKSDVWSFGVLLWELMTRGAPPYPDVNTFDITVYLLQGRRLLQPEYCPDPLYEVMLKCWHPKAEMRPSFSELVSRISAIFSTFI
Method: as §1

SMILES	IC50 [1]	IC50 [2]	IC50 [3]	IC50 (human MET kinase D1228H)	IC50 (human MET kinase D1228N)	IC50 (human MET kinase F1200I)	IC50 (human MET kinase L1195V)	IC50 (human MET kinase Y1230C)	IC50 (human MET kinase Y1230H)
COc1cc2nccc(Oc3ccc(NC(=O)c4cn(C(C)C)cc(-c5ccc(F)cc5)c4=O)nc3)c2cc1OC [Example 1]	3 nM	2.4 nM	2.6 nM	1.8 nM	3.4 nM	2.5 nM	7.1 nM	1.5 nM	2.9 nM
COc1cc2nccc(Oc3ccc(NC(=O)c4cn(C)cc(-c5ccc(F)cc5)c4=O)nc3)c2cc1OC [Example 2]	3 nM	6.4 nM	5.3 nM	16.6 nM	29.3 nM	6.8 nM	87.1 nM	9.5 nM	18.2 nM
CCn1cc(C(=O)Nc2ccc(Oc3ccnc4cc(OC)c(OC)cc34)cn2)c(=O)c(-c2ccc(F)cc2)c1 [Example 3]	3 nM	3.2 nM	3 nM	4.7 nM	7.4 nM	5 nM	15.3 nM	4.2 nM	6.4 nM
COc1cc2nccc(Oc3ccc(NC(=O)c4cn(C(C)C)cc(-c5ccc(F)cc5F)c4=O)nc3)c2cc1OC [Example 4]	2 nM	2.1 nM	1.7 nM	3.2 nM	6.5 nM	3 nM	21.9 nM	2.8 nM	4.9 nM
COc1cc2nccc(Oc3ccc(NC(=O)c4cn(C(C)C)cc(-c5ccc(Cl)cc5)c4=O)nc3)c2cc1OC [Example 5, 5-(4-chlorophenyl)-N-(5-((6,7-dimethoxyquinolin-4-yl)oxy)pyridin-2-yl)-1-isopropyl-4-oxo-1,4-dihydropyridine-3-carboxamide]	4 nM	6.4 nM	6.4 nM	9.6 nM	16.1 nM	5.7 nM	9.8 nM	8.1 nM	16.6 nM
COc1cc2nccc(Oc3ccc(NC(=O)c4cn(C(C)C)cc(-c5ccc(F)c(F)c5)c4=O)nc3)c2cc1OC [Example 6]	5 nM	8.8 nM	7.8 nM	12.1 nM	24.2 nM	8.1 nM	62.1 nM	12.4 nM	24.2 nM
COCCn1cc(C(=O)Nc2ccc(Oc3ccnc4cc(OC)c(OC)cc34)cn2)c(=O)c(-c2ccc(F)cc2)c1 [Example 7, N-(5((6,7-dimethoxyquinolin-4-yl)oxy)pyridin-2-yl)-5-(4-fluorophenyl)-1-(2-methoxyethyl)-4-oxo-1,4-dihydropyridine-3-carboxamide]	3 nM	3.1 nM	2.6 nM	2 nM	6.4 nM	3.7 nM	7.3 nM	2.9 nM	5.4 nM
COc1cc2nccc(Oc3ccc(NC(=O)c4cn(CC5CCOCC5)cc(-c5ccc(F)cc5)c4=O)nc3)c2cc1OC [Example 8, N-(5-((6,7-dimethoxyquinolin-4-yl)oxy)pyridin-2-yl)-5-(4-fluorophenyl)-4-oxo-1-((tetrahydro-2H-pyran-4-yl)methyl)-1,4-dihydropyridine-3-carboxamide]	4 nM	4.1 nM	3.9 nM	7.2 nM	10.7 nM	4.9 nM	29.1 nM	7.4 nM	8.6 nM
COc1cc2nccc(Oc3ccc(NC(=O)c4cn(CC(C)(C)O)cc(-c5ccc(F)cc5)c4=O)nc3)c2cc1OC [Example 9, N-(5-((6,7-dimethoxyquinolin-4-yl)oxy)pyridin-2-yl)-5-(4-fluorophenyl)-1-(2-hydroxy-2-methylpropyl)-4-oxo-1,4-dihydropyridine-3-carboxamide]	3 nM	2.9 nM	5.6 nM	10 nM	15.8 nM	6.4 nM	47.7 nM	6.2 nM	13.1 nM
CCCn1cc(C(=O)Nc2ccc(Oc3ccnc4cc(OC)c(OC)cc34)cn2)c(=O)c(-c2ccc(F)cc2)c1 [Example 10, N-(5((6,7-dimethoxyquinolin-4-yl)oxy)pyridin-2-yl)-5-(4-fluorophenyl)-4-oxo-1-propyl-1,4-dihydropyridine-3-carboxamide]	8 nM	3.6 nM	3.5 nM	3.7 nM	4.1 nM	4.2 nM	9.7 nM	3.1 nM	6.1 nM

Second part, the molecule after the results:

IC50 [1]	IC50 [2]	IC50 [3]	IC50 (human MET kinase D1228H)	IC50 (human MET kinase D1228N)	IC50 (human MET kinase F1200I)	IC50 (human MET kinase L1195V)	IC50 (human MET kinase Y1230C)	IC50 (human MET kinase Y1230H)	SMILES
5 nM	6 nM	5.2 nM	12.5 nM	19.2 nM	6.4 nM	–	6.5 nM	17 nM	COc1cc2nccc(Oc3ccc(NC(=O)c4c[nH]cc(-c5ccc(F)cc5)c4=O)nc3)c2cc1OC [Example 26, N-(5-((6,7-dimethoxyquinolin-4yl)oxy)pyridin-2-yl)-5-(4-fluorophenyl)-4-oxo-1,4-dihydropyridine-3-carboxamide]
6 nM	–	–	–	–	–	–	–	–	COc1cc2nccc(Oc3ccc(NC(=O)c4cn(C(C)C)c(C(C)C)c(-c5ccc(F)cc5)c4=O)nc3)c2cc1OC [Example 38, N-(5-((6,7-dimethoxyquinolin-4yl)oxy)pyridin-2-yl)-5-(4-fluorophenyl)-1,6-diisopropyl-4-oxo-1,4-dihydropyridine-3-carboxamide]
950 nM	3070 nM	–	4220 nM	–	3690 nM	–	3310 nM	1670 nM	COc1cc2nc(C)cc(Oc3ccc(NC(=O)c4cn(C(C)C)cc(-c5ccc(F)cc5)c4=O)nc3)c2cc1OC [Example 53, N-(5-((6,7-dimethoxy-2-methylquinolin-4-yl)oxy)pyridin-2-yl)-5-(4-fluorophenyl)-1-isopropyl-4-oxo-1,4-dihydropyridine-3-carboxamide]
29 nM	297 nM	305 nM	532 nM	1060 nM	346 nM	–	526 nM	789 nM	COc1cc2ncc(C#N)c(Oc3ccc(NC(=O)c4cn(C(C)C)cc(-c5ccc(F)cc5)c4=O)nc3)c2cc1OC [Example 57, N-(5-((3-cyano-6,7-dimethoxyquinolin-4-yl)oxy)pyridin-2-yl)-5-(4-fluorophenyl)-1-isopropyl-4-oxo-1,4-dihydropyridine-3-carboxamide]
